Experimental data as given in patent US10960017B2, “Sorafenib or regorafenib troxacitabine phosphoramidate prodrug combination therapy for liver cancer” (priority 2016, dated 2021).
Like-named read-outs stand apart in the source and are kept apart here.

How the values were obtained:
[1] = system: human hepatocellular carcinoma cell line Hep3B; test: Combinatorial evaluation in cell culture (Hep3B proliferation, Cell Counting Kit-8, MacSynergy II); type: cell-based; settings: combination with sorafenib, Hep3B cells, 6 days incubation; for anti-proliferative interaction with sorafenib (MacSynergy II classification): 95% confidence; for log volume at 95% confidence (synergy volume calculated by MacSynergy II): log volumes >9 indicate strong synergy
Method: General Procedure for Combinatorial Evaluation in Cell Culture
For analysis of the human hepatocellular carcinoma cell line Hep3B, from DSMZ (ACC 93), was used. Hep3B cells were cultured as epithelial-like cells in monolayers in 90% MEM (with Earle's salts)+10% h.i. FBS+2 mM L-glutamine+50 u/ml Penicillin/0.05 mg/ml Streptomycin as culture medium. Confluent cultures were split 1:4 to 1:10 every 3-5 days using trypsin/EDTA, and re-seeded at 0.5−1×10^6 cells/80 cm^2.
Cell culture flask is washed 2 times with 5 ml PBS and PBS discarded. Add 1.5 ml of trypsin and put the flask into the incubator for 3-4 minutes. Shake the flask and add 10 ml of DMEM, 10% FCS, 50 μ/ml Penicillin/0.05 mg/ml Streptomycin without phenol red. The cells were counted using the Scepter cell counter, Hep3B cells were diluted to 20×10^3 cells/ml in complete cell medium without phenol red. 100 μl cell suspension/well was seeded in 96-well cell assay plates. Two replicate plates for each combination.
Test compounds were tested at nine concentrations, either 5 μM to 0.00076 μM or 10 μM to 0.0015 μM, in a 1:3 dilution series. Sorafenib was tested at seven concentrations, 20 μM to […], in a 1:2 dilution series. The four dilution plates were prepared with the Echo instrument.
The compound dilutions were 2 times the desired final concentrations. The volume in the dilution plates in each well are 125 μl of medium with compounds.
100 μl from the dilution plate with compounds in the different concentrations were transferred to the corresponding well of the cell assay plate with 100 μl, (200 μl/well in total volume). Incubate the plates for 6 days, at 37° C., 5% CO2.
10 μl of CCK Kit-8 was added to each well using a multi-channel pipette (submerging the tips below the surface in each well). Plates were incubated for 4 hours at 37° C., 5% CO2.
The plate was read in the spectrophotometer at a wavelength of 450 nm, with a reference filter of 650 nm. Average absorbance was >1 to <3 for the vehicle treated cell controls.
Raw data from the two plates of each combination were entered into the Mac Synergy II shareware where the combined effect was calculated and plotted in a 3D dose-response surface graph. Theoretical additive interactions are calculated from the dose response curves for each drug individually. Calculated additive surface is subtracted from experimentally determined dose-response surfaces to reveal regions of non-additive activity. The final results are given as synergy or antagonism volumes (μM^2%) according to guide lines given in the manual for MacSynergy II:
Synergy volumes: • 1. Values of synergy or antagonism under 25 μM^2% (log volumes <2) at 95% confidence should be regarded as insignificant and are probably not important. • 2. Values between 25 μM^2% and 50 μM^2% (log volumes >2 and <5) should be considered a minor but significant amount of synergy. • 3. Values between 50 μM^2% and 100 μM^2% (log volumes >5 and <9) indicate moderate synergy or antagonism. This interaction may be important in vivo. • 4. Values over 100 μM^2% (log volumes >9) indicate strong synergy and are probably important in vivo.

[2] = cited from earlier work

CCC[C@H](C)OC(=O)[C@H](C)NP(=O)(OC[C@H]1OC[C@@H](n2ccc(N)nc2=O)O1)Oc1ccccc1 (single isomer, unassigned) [Example 1]
anti-proliferative interaction with sorafenib (MacSynergy II classification) [1]: strong anti-proliferative synergy | log volume at 95% confidence (synergy volume calculated by MacSynergy II) [1]: 76

CC[C@@H](C)OC(=O)[C@H](C)NP(=O)(OC[C@H]1OC[C@@H](n2cc(F)c(N)nc2=O)O1)Oc1ccccc1 (single isomer, unassigned) [Example 2]
anti-proliferative interaction with sorafenib (MacSynergy II classification) [1]: strong anti-proliferative synergy | log volume at 95% confidence (synergy volume calculated by MacSynergy II) [1]: 11

CCCC(CCC)COC(=O)[C@H](C)NP(=O)(OC[C@H]1OC[C@@H](n2ccc(N)nc2=O)O1)Oc1ccccc1 (single isomer, unassigned) [Example 3]
anti-proliferative interaction with sorafenib (MacSynergy II classification) [1]: strong anti-proliferative synergy | log volume at 95% confidence (synergy volume calculated by MacSynergy II) [1]: 32

CCC[C@H](C)OC(=O)[C@H](C)NP(=O)(OC[C@H]1OC[C@@H](n2ccc(N)nc2=O)O1)Oc1ccc(Br)cc1 (single isomer, unassigned) [Example 4]
anti-proliferative interaction with sorafenib (MacSynergy II classification) [1]: strong anti-proliferative synergy | log volume at 95% confidence (synergy volume calculated by MacSynergy II) [1]: 40

CC[C@@H](C)OC(=O)[C@@H](NP(=O)(OC[C@H]1OC[C@@H](n2ccc(N)nc2=O)O1)Oc1ccccc1)C(C)C (single isomer, unassigned) [Example 5]
anti-proliferative interaction with sorafenib (MacSynergy II classification) [1]: strong anti-proliferative synergy | log volume at 95% confidence (synergy volume calculated by MacSynergy II) [1]: 46

CNC(=O)c1cc(Oc2ccc(NC(=O)Nc3ccc(Cl)c(C(F)(F)F)c3)c(F)c2)ccn1 [Regorafenib monohydrate, 4-[4-({[4-chloro-3-(trifluoromethyl)phenyl]carbamoyl}amino)-3-fluorophenoxy]-N-methylpyridine-2-carboxamide monohydrate]
solubility ([2]; acetone): sparingly soluble | solubility ([2]; acetonitrile): slightly soluble | solubility ([2]; aqueous media): practically insoluble | solubility ([2]; ethanol): slightly soluble | solubility ([2]; ethyl acetate): slightly soluble | solubility ([2]; methanol): slightly soluble

CNC(=O)c1cc(Oc2ccc(NC(=O)Nc3ccc(Cl)c(C(F)(F)F)c3)cc2)ccn1.Cc1ccc(S(=O)(=O)O)cc1 [Sorafenib tosylate, 4-(4-{3-[4-Chloro-3(trifluoromethyl)phenyl]ureido}phenoxy) N-methylpyridine-2-carboxamide 4-methylbenzenesulfonate]
solubility ([2]; PEG 400): soluble | solubility ([2]; aqueous media): practically insoluble | solubility ([2]; ethanol): slightly soluble
